In general, ED50 refers to the dose that gives a 50% effect, or the effect in half of the subjects. A lower ED50 goes with greater potency.

The structures appear in SMILES notation. In brackets after ≈: the same amount, converted by molar mass. Where two headings read alike, the source gives them in different places.

Assay [1] concerns dl-PGE1-induced contraction of gerbil colon. In words: Inhibition of dl-PGE1-Induced Contraction of Gerbil Colon (prostaglandin antagonist action). Format: cell-based, gerbils (Meriones unguiculatus). To be noted: Meriones unguiculatus, 1 min. The procedure, abridged: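 Ascending colon from male gerbils, held in De Jalon's solution at 37 °C under 95% O2/5% CO2 with 0.5 g resting tension, contraction recorded isometrically. 1 min compound exposure, then 1 min dl-PGE1 at 200 ng/ml (maximal) or 20 ng/ml (sub-maximal). Approximate ID50 taken from a concentration series against the preceding agonist-only cycle.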

The test system of assay [2] is bronchospasms elicited by 5-hydroxytryptamine. Kind of assay: Bronchodilator Activity (Konzett Assay) against 5-hydroxytryptamine. Particulars: Cavia porcellus; three logarithmic cumulative intravenous doses. Format: in vivo, guinea pigs. The procedure, abridged:
(§1)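 Guinea pigs given intravenous spasmogen (5-hydroxytryptamine, histamine or acetylcholine) per Konzett procedure. ED50 derived from three logarithmic cumulative intravenous doses of test compound.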

Assay [3] relates to gastric acid secretion. In words: Inhibition of Gastric Acid Secretion (Pylorous-Ligated Rat), Shay rat procedure. To be noted: read-out: % Inhibition of Control Gastric Acid Secretion; for inhibition in vivo at 50 mg/kg: 50 mg./kg. intraduodenal; for inhibition in vivo at 100 mg/kg: 100 mg./kg. intraduodenal. In kind it is in vivo, rats (male, CFE strain). Summed up: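 Male CFE rats were fasted 48 h, then pylorus-ligated under ether. Gastric contents were titrated with 0.02N or 0.04N NaOH to pH 8.4 for acid output, and ≥20% inhibition counted as active.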

Assay [4] has as its system bronchospasms elicited by histamine. In words: Bronchodilator Activity (Konzett Assay) against histamine. Format: in vivo, guinea pigs. To be noted: Cavia porcellus; three logarithmic cumulative intravenous doses. Summed up:
as §1

[5] abbreviates: sub-maximal challenge, 20 ng./ml. dl-PGE1, 50% inhibition of maximum response, read-out: ID50 vs. 20 ng. of PGE1/ml.
[6] abbreviates: 200 ng./ml. dl-PGE1, read-out: ID50 vs. 200 ng. of PGE1/ml.

As for `CCCCCC/C=C/[C@@H]1CCCC(=O)[C@H]1CCCCCCC(=O)O` (relative stereo) [9-oxo-10a-homo-13-trans-prostenoic acid], in assay [1] (setting [5]), the IC50 lay in the range of 2.5 to 5 µg/mL (≈ 7.43 to 14.9 µM). Besides, the ED50 in assay [2] was > 10.1 mg/kg; in assay [4], 10.1 mg/kg. In addition, in assay [3], the inhibition in vivo at 50 mg/kg was 80%.

Turning to `CC/C=C\CC/C=C/[C@@H]1CCC(=O)[C@H]1CCCCCCC(=O)O` (relative stereo) [9-oxo-13-trans-17-cis-prostadienoic acid], the IC50 in assay [1] (setting [5]) is 2.5 to 5 µg/mL (≈ 7.8 to 15.6 µM). For the same compound, the ED50 turned out to be 0.422 mg/kg in assay [2] and 0.65 mg/kg in assay [4]. In assay [3], the inhibition in vivo at 100 mg/kg turned out to be 21%.

In the case of `CCCCCC/C=C/[C@H]1CCC(=O)[C@@H]1CCCCCCC(=O)O` (relative stereo) [9-oxo-13-trans-prostenoic acid], the IC50 lay in the range of 9 to 10 µg/mL (≈ 27.9 to 31 µM) in assay [1] (setting [6]) and 1.5 to 2 µg/mL (≈ 4.65 to 6.2 µM) in assay [1] (setting [5]). In addition, the ED50 is 0.077 mg/kg in assay [2] and 0.232 mg/kg in assay [4]. In addition, the inhibition in vivo at 200 mg/kg in assay [3] (200 mg./kg. intraduodenal) is 69%.

Take `CCC/C=C/[C@H]1CCC(=O)[C@@H]1CCCCCCC(=O)O` (relative stereo) [9-oxo-18,19,20-trinor-13-trans-prostenoic acid]: in assay [1] (setting [6]), the IC50 fell in the range of 10 to 15 µg/mL (≈ 35.7 to 53.5 µM). Further, the ED50 in assay [2] was determined as 0.484 mg/kg; in assay [4] it was 0.837 mg/kg. Besides, the inhibition in vivo at 50 mg/kg in assay [3] was determined as 50%. In assay [3], the inhibition in vivo at 100 mg/kg is 92%.

On to `CCCCC/C=C/[C@H]1CCC(=O)[C@@H]1CCCCCCC(=O)O` (relative stereo) [9-oxo-20-nor-13-trans-prostenoic acid], for which the IC50 in assay [1] (setting [5]) stood at 5 µg/mL (≈ 16.2 µM). The ED50 in assay [2] was 0.152 mg/kg; in assay [4] it was 0.126 mg/kg. In assay [3], the inhibition in vivo at 100 mg/kg was determined as 49%.

As for `CC(C)CC/C=C/[C@@H]1CCC(=O)[C@H]1CCCCCCC(=O)O` (relative stereo) [17-methyl-9-oxo-19,20-dinor-13-trans-prostenoic acid], the IC50 in assay [1] (setting [5]) is 0.25 to 0.5 µg/mL (≈ 0.81 to 1.62 µM). The ED50 in assay [2] is 2.8 mg/kg; in assay [4], 1.07 mg/kg. For the same compound, the inhibition in vivo at 100 mg/kg in assay [3] turned out to be 28%.

As for `O=C(O)CCCCCC[C@H]1C(=O)CC[C@@H]1/C=C/CCCCCCCl` (relative stereo) [20-chloro-9-oxo-13-trans-prostenoic acid], the IC50 in assay [1] (setting [5]) lay within 5 to 10 µg/mL (≈ 14 to 28 µM). In addition, the results for the ED50 in assay [2] and in assay [4] were 2.39 mg/kg and 1.22 mg/kg, respectively. Besides, the inhibition in vivo at 100 mg/kg in assay [3] was determined as 56%.

Regarding `O=C(O)CCCCCC[C@@H]1C(=O)CC[C@H]1/C=C/CCCCl` (relative stereo) [20-chloro-9-oxo-17,18,19-trinor-13-trans-prostenoic acid], the IC50 in assay [1] (setting [5]) fell in the range of 1 to 2.5 µg/mL (≈ 3.18 to 7.94 µM). Moreover, the ED50 in assay [2] was 1.48 mg/kg; in assay [4], 0.928 mg/kg. The inhibition in vivo at 100 mg/kg in assay [3] is 34%.

With `CCCCCCC/C=C/[C@@H]1CCC(=O)[C@H]1CCCCCCC(=O)O` (relative stereo) [20-methyl-9-oxo-13-trans-prostenoic acid], in assay [1] (setting [5]), the IC50 fell in the range of 2 to 2.5 µg/mL (≈ 5.94 to 7.43 µM). For the same compound, the ED50 was determined as 3.42 mg/kg in assay [2] and 0.126 mg/kg in assay [4]. The inhibition in vivo at 100 mg/kg in assay [3] turned out to be 34%.

The record behind these values is patent US4044043A, “Derivatives of 9-oxo-13-trans-prostenoic acid esters” (American Cyanamid Company, priority 1975, dated 1977).
